Measured values published in PMC6273488, “Synthesis and Biological Evaluation of Benzochromenopyrimidinones as Cholinesterase Inhibitors and Potent Antioxidant, Non-Hepatotoxic Agents for Alzheimer’s Disease” (Molecules, 2016).
Several values for one entry are separate records, joined by “and”; a condition that tells them apart may be missing. Equal entries are not always repeated. Entries after “also recorded” stand apart in the source; their conditions may differ.

What was measured:
[1] = biological target: T1, human recombinant AChE (hAChE) (Homo sapiens, UniProt P22303); assay: Kinetic characterization of hAChE inhibition (Lineweaver-Burk); type: biochemical
T1 construct: purchased Sigma-Aldrich
Protocol: To get insight into the mode of inhibition, the kinetic mechanism of hAChE inhibition by compound 3Bb was investigated through classical Lineweaver-Burk double reciprocal plots.
To estimate the type of inhibition of hAChE, we performed the same experimental protocol as reported for hAChE inhibition. […]. The stock solution of ATC (0.5 mM in a well) was prepared in demineralized water and diluted before use to obtain 0.4, 0.3, 0.2, 0.1 and 0.067 mM substrate solutions. The double reciprocal plots were analysed by a weighted least square procedure that assumed the variance of V to be constant. Each experiment was performed in triplicate. To confirm the mode of inhibition, Cornish-Bowden plots were obtained by plotting S/V (substrate/velocity ratio) versus the inhibitor concentration. Data analysis was performed with GraphPad Prism 5. Inhibition constant (Ki) values were determined by re-plotting slopes from the Lineweaver-Burk plot versus the inhibitor concentration where Ki was determined as the intersect of the line with the x-axis.

[2] = biological target: T2, Recombinant human Aβ1–42 peptide (Homo sapiens, UniProt P05067); assay: Inhibition of Aβ1-42 aggregation (Thioflavin-T fluorometric assay); type: biochemical; conditions: for inhibition at 10 µM: 10 µM compound and 1.5 µM Aβ1-42, mean ± standard deviation of two independent experiments
T2 construct: Recombinant human 1,1,1,3,3,3-hexafluoro-2-propanol pretreated Aβ1–42 peptide; purchased Merck Millipore
Protocol: 2. Thioflavin-T (ThT) Fluorometric Assay
Recombinant human 1,1,1,3,3,3-hexafluoro-2-propanol pretreated Aβ1–42 peptide (Merck Millipore, Darmstadt, Germany) was dissolved in DMSO to give 75 µM stock solution. The stock solution was further diluted in HEPES buffered solu tion (150 mM HEPES, pH 7.4, 150 mM NaCl), to 7.5 µM. Aβ1–42 solution was then added to the test compounds in black-walled 96-well plate, and diluted with ThT solution (final concentration of ThT was 10 µM). Final mixture contained 1.5 µM Aβ1–42, 10 µM of test compounds, and 3% DMSO. ThT fluorescence was measured every 5 min (λex = 440 nm, λem = 490 nm), with the medium continuously shaking between measurements using a 96-well microplate reader (Synergy™ H4, BioTek Instruments, Inc., Winooski, VT, USA). The fluorescence intensities at the plateau reached after 24 h in the absence and presence of the test compound were averaged, and the average fluorescence of the corresponding wells at t = 15 min was subtracted. The Aβ1–42 aggregation inhibitory potency is expressed as the percentage inhibition (% inh = (1 − Fi/F0) × 100%), where Fi is the increase in fluorescence of Aβ1–42 treated with the test compound, and F0 is the increase in fluorescence of Aβ1–42 alone.
1. LeVine, H. Thioflavine T interaction with synthetic Alzheimer’s disease beta-amyloid peptides:
Detection of amyloid aggregation in solution. Protein Sci. Publ. Protein Soc. 1993, 2, 404–410.

[3] = Oxygen radical absorbance capacity by fluorescence (ORAC-FL); conditions: mean ± SD
Protocol: Trolox was used as standard, fluorescein as fluorescent probe and 2,2′-azobis(2-amidinopropane) dihydrochloride (AAPH) as the peroxyl radical source. Ferulic acid was used as a positive control.
The antioxidant power of BCPOs was determined following the ORAC-FL method using fluorescein as the fluorescent probe. (±)-6-Hydroxy-2,5,7,8-tetramethylchromane-2-carboxylic acid (Trolox), fluorescein (FL) and AAPH were bought from Sigma-Aldrich (Saint Louis, MO, USA). A Varioskan Flash plate reader with built-in injectors (Thermo Scientific, Waltham, MA, USA) was used. The final volume reaction mixture was 200 µL and the reaction was carried out at 37 °C in 75 mM phosphate buffer (pH 7.4). The tested compounds and Trolox standard were dissolved in DMSO to 10 mM and further diluted in phosphate buffer. The final concentrations were 0.1–1 µM for the tested compounds and 1–8 µM for Trolox standard. The blank was composed of 120 µL of FL, 60 µL of AAPH and 20 µL of phosphate buffer (pH = 7.4) and was added in each assay. The antioxidant (20 µL) and fluorescein (FL, 120 µL, final concentration of 70 nM) were incubated in a black 96-well microplate Nunc, purchazed from Thermo Fisher Scientific, Ecublens, Switzerland) for 15 min at 37 °C. Then, AAPH, 60 µL, final concentration of 12 mM) solution was added quickly using the built-in injector. […] The microplate was automatically shaken prior to each reading. All the experiments were made in triplicate and at least three different assays were performed for each sample.
Using MS Excel software, regression equations were extrapolated by plotting the net AUC against the antioxidant concentration. The ORAC values were then obtained by dividing the slope of the latter curve between the slope of the Trolox curve obtained in the same assay. Final ORAC values were expressed as Trolox equivalents. Data are expressed as mean ± SD.

[4] = Solubility in DMSO (footnote remark); type: physicochemical; conditions: DMSO at 10 mM and 1 mM

T2 sequence (P05067 672-713): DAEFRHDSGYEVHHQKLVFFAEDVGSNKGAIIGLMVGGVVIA
T1 sequence (P22303 32-614): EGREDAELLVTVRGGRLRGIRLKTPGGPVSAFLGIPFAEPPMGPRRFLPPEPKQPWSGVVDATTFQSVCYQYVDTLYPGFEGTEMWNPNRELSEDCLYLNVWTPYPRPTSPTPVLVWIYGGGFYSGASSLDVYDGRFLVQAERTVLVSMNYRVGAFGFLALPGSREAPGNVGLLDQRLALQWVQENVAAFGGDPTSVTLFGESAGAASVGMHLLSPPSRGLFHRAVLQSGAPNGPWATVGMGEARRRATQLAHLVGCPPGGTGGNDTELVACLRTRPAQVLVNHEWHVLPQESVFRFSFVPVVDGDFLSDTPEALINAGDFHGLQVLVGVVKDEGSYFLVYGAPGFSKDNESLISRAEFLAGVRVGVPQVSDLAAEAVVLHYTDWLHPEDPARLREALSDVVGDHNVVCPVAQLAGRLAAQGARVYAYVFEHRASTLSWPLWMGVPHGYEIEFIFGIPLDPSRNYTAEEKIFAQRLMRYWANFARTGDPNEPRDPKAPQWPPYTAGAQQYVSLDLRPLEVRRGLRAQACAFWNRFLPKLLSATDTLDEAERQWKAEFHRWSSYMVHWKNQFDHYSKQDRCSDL

Row | Compound | mode of hAChE inhibition ([1]; Lineweaver-Burk double reciprocal plot) | Ki ([1]; estimated from Lineweaver-Burk replots, read-out: Ki (dissociation constant for the enzyme-inhibitor complex)) [µM] | inhibition at 10 µM [2] [%] | ORAC [3] | solubility in DMSO (in words) [4] | Aβ1–42 aggregation inhibition (in words) ([2]; 10 µM compound)
1 | COc1cccc(C2c3c(nc4n(c3=O)CCCC4)Oc3ccc4ccccc4c32)c1 (stereo not drawn) [3Bb, 15-(3′-Methoxyphenyl)-10,11,12,15-tetrahydro-9H-benzo[5,6]chromeno[2,3-d]pyrido[1,2-a]pyrimidin-14-one] | mixed-type inhibition; also recorded: mixed-type hAChE inhibitor | 0.38 | < 10 | 4.7 Trolox equivalents and 4.7 ± 0.2 Trolox equivalents | – | –
2 | Cc1ccc(C2c3c(nc4n(c3=O)CCCC4)Oc3ccc4ccccc4c32)cc1 (stereo not drawn) [3Cb, 15-(4′-Methylphenyl)-10,11,12,15-tetrahydro-9H-benzo[5,6]chromeno[2,3-d]pyrido[1,2-a]pyrimidin-14-one] | – | – | < 10 | 3.9 ± 0.3 Trolox equivalents | poor solubility in DMSO at 10 mM and 1 mM | –
3 | COc1cccc(C2c3c(nc4n(c3=O)CCC4)Oc3ccc4ccccc4c32)c1 (stereo not drawn) [3Ba, 14-(3′Methoxyphenyl)-10,11-dihydro-14H-benzo[5,6]chromeno[2,3-d]pyrrolo[1,2-a]pyrimidin-13(9H)-one] | – | – | < 10 | 3.4 ± 0.2 Trolox equivalents | – | –
4 | O=c1c2c(nc3n1CCCC3)Oc1ccc3ccccc3c1C2c1ccccc1 (stereo not drawn) [3Ab, 15-Phenyl-10,11,12,15-tetrahydro-9H-benzo[5,6]chromeno[2,3-d]pyrido[1,2-a]pyrimidin-14-one] | – | – | 13.6 ± 2.1 | 2.3 ± 0.3 Trolox equivalents | – | weak inhibition power
